The target of the assay is Procathepsin L (Homo sapiens, UniProt P07711). The assay is described as follows: Inhibition of cathepsin L.
Procathepsin L, sequence (P07711 whole entry): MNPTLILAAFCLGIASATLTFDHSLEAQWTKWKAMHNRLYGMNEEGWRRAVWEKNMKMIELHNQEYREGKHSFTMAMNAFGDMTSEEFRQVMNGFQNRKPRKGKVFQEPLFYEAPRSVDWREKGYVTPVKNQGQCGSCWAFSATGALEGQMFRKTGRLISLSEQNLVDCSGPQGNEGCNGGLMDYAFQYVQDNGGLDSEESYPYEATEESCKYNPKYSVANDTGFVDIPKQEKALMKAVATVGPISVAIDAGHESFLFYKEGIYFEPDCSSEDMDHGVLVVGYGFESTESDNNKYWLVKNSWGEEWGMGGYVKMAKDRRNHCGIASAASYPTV
For the molecule `CCc1ccccc1NC(=O)CSC(=O)NNC(=O)[C@@H](N)Cc1c[nH]c2ccccc12`, it took 133 nM to reach half-maximal inhibition (IC50).

As to `CN(C)C(=O)CSc1nnc([C@@H](N)Cc2c[nH]c3ccccc23)o1`, the IC50 worked out at 170 nM.

`CCN(CC)C(=O)CSc1nnc([C@@H](N)Cc2c[nH]c3ccccc23)o1` displayed a 50% inhibitory concentration (IC50) of 510 nM. For `Cc1cccc(NC(=O)CSc2nnc(C(N)Cc3c[nH]c4ccccc34)o2)c1C` (single isomer, unassigned), inhibition was half-maximal at 300 nM (IC50). The figure for `Cc1ccc(NC(=O)CSc2nnc(C(N)Cc3c[nH]c4ccccc34)o2)c(C)c1` (single isomer, unassigned) is 160 nM; for `CCc1ccccc1NC(=O)CSc1nnc(C(N)Cc2c[nH]c3ccccc23)o1` (single isomer, unassigned) it is 130 nM.

As a reminder, the IC50 is the point on the concentration scale where inhibition reaches its midpoint.

(Values after ChEMBL document CHEMBL1143859, “Identification and synthesis of a unique thiocarbazate cathepsin L inhibitor” (Bioorg Med Chem Lett, 2008).)
